From patent publication US10914725B2, “Culture medium additive, culture medium composition, and method for culturing cells or tissue using same” (NISSAN CHEMICAL INDUSTRIES, LTD., priority 2015, dated 2021)

System: human ovarian cancer cell line SKOV3
Assay: Cell proliferation test by dispersing SKOV3 cells with growth factors (Experimental Example 4)
Format: cell-based
Conditions: 10 days
Protocol: By a method similar to the preparation method of medium composition in Analysis Example 1, a medium composition containing 10 (v/v) % FBS, and 0.03 (w/v) % of low-molecular agar in DMEM (manufactured by Wako Pure Chemical Industries, Ltd.) was prepared.
Then, human ovarian cancer cell line SKOV3 (manufactured by DS PHARMA BIOMEDICAL CO., LTD.) was suspended in the above-mentioned medium composition containing low-molecular agar at 37,000 cells/mL, and dispensed to the wells of a 96 well flat plane ultra-low attachment surface microplate (manufactured by Corning Incorporated, #3474) at 135 μL per 1 well. The plate was stood in a CO2 incubator (37° C., 5% CO2), and a growth factor was added the next day. A similar operation was performed with 10 (v/v) % FBS-containing DMEM free of low-molecular agar. As a growth factor, human heparin bindability epithelial cell growth factor (hHB-EGF) (manufactured by PeproTech, Inc.) at a final concentration of 30 ng/mL or 100 ng/mL, human epithelial cell growth factor (hEGF) (manufactured by PeproTech, Inc.) and human transforming growth factor α (hTGFα) (manufactured by PeproTech, Inc.) each at a final concentration of 1 ng/mL, 3 ng/mL or 10 ng/mL were added by 15 μL per 1 well.
Successively, the plate was cultured in a standing state in a CO2 incubator (37° C., 5% CO2) for 10 days. As a negative control, DMEM in an amount equal to that of a growth factor was added. CellTiter-Glo Luminescent Cell Viability Assay (manufactured by Promega) (100 μL) was added to the cell culture medium after culturing for 10 days, stood for 10 min at room temperature, and the amount of luminescence was measured by a microplate reader (“FlexStation 3”, manufactured by Molecular Devices) and according to the protocol recommended by Promega. The amount of luminescence of the medium composition alone was subtracted, whereby the number of viable cells was measured.
The relative cell number when the amount of luminescence of the negative control is 1 was determined from the amount of luminescence (corresponding to the number of SKOV3 cells) after culturing for 10 days after the addition of the growth factor, and shown in Table 11.

## hTGFα: human transforming growth factor α (PeproTech)
Growth factor 1 ng/mL, low-molecular agar 0 (w/v)%
  relative cell number (negative control = 1): 1.448
Growth factor 1 ng/mL, low-molecular agar 0.03 (w/v)%
  relative cell number (negative control = 1): 1.371
Growth factor 3 ng/mL, low-molecular agar 0 (w/v)%
  relative cell number (negative control = 1): 1.445
Growth factor 3 ng/mL, low-molecular agar 0.03 (w/v)%
  relative cell number (negative control = 1): 1.916
Growth factor 10 ng/mL, low-molecular agar 0 (w/v)%
  relative cell number (negative control = 1): 1.512
Growth factor 10 ng/mL, low-molecular agar 0.03 (w/v)%
  relative cell number (negative control = 1): 2.167
